Counter-ions that a name gives are not always drawn.
Tested on: epithelial breast carcinoma cell line (MDAMB-435)
Test: Antiproliferative activity (growth inhibition, MTT), epithelial breast carcinoma cell line MDAMB-435
Assay type: cell-based
Details: Homo sapiens, MDA-MB-435, 120 h, 5 days post drug addition, 0.1% DMSO, read-out: IC50 (growth inhibition of MDAMB-435 cells)
Method: The epithelial breast carcinoma cell line (MDAMB-435) was purchased from ATCC (American Type Cell Culture Collection) and was grown in culture medium as recommended by ATCC. For analysis of the effect of various compounds of formula I on the growth of these cells, the cells were plated at a concentration of 1500 cells/well in a 96 well tissue culture plate ("test plate"). The day after the cells were plated, the compounds to be analyzed were dissolved in 100% DMSO (dimethyl sulfoxide) to yield at 10 mM stock solution. Each compound was diluted in H2 O to 1 mM and was added to triplicate wells in the first row of a 96 well master plate containing medium to yield a final concentration of 40 μM. The compounds were then serially diluted in medium in the "master plate". The diluted compound(s) were then transferred to test plates containing cells. A row of vehicle "control cells" received DMSO. The final concentration of DMSO in each well was 0.1%. 5 days post drug addition, the plate was analyzed as described below.
MTT (3-(4-5 methyl thiazole-2-yl)-2,5-diphenyl tetrazolium bromide; thiazolyl blue) was added to each well to yield a final concentration of 1 mg/ml. The plate was then incubated at 37° C. for 21/2-3 hours. The MTT-containing medium was then removed and 50 μl of 100% ethanol was added to each well to dissolve the formazan. The absorbences were then read using an automated plate reader (Bio-tek microplate reader). IC50 s were calculated using the Reed and Munsch equation, see Am. J. Hygiene Vol. 27 pgs. 493-497,1938.

| SMILES | IC50 |
| --- | --- |
| Cn1cncc1-c1ccc2c(C3=C(c4cn(C)c5cc([N+](=O)[O-])ccc45)C(=O)NC3=O)cn(C)c2c1 [Example 1, 3-[1-Methyl-6-(3-methyl-3H-imidazol-4-yl)-1H-indol-3-yl]-4-(1-methyl-6-nitro-1H-indol-3-yl)-pyrrole-2,5-dione] | 5 nM |
| Cn1cncc1-c1ccc2c(C3=C(c4cn(C)c5ccccc45)C(=O)NC3=O)cn(C)c2c1 [Example 2a, 3-(1-Methyl-1H-indol-3-yl)-4-[1-methyl-6-(3-methyl-3H-imidazol-4-yl)-1H-indol-3-yl]pyrrole-2,5-dione] | 50 nM |
| COc1ccc2c(C3=C(c4cn(C)c5cc(-c6cncn6C)ccc45)C(=O)NC3=O)cn(C)c2c1 [Example 2b, 3-(6-Methoxy-1-methyl-1H-indol-3-yl)-4-[1-methyl-6-(3-methyl-3H-imidazol-4-yl)-1H-indol-3-yl]pyrrole-2,5-dione] | 60 nM |
| Cn1ccnc1-c1ccc2c(C3=C(c4cn(C)c5cc([N+](=O)[O-])ccc45)C(=O)NC3=O)cn(C)c2c1 [Example 2c, 3-[1-Methyl-6-(1-methyl-1H-imidazol-2-yl)-1H-indol-3-yl]-4-(1-methyl-6-nitro-1H-indol-3-yl)pyrrole-2,5-dione] | 30 nM |
| CCn1ccnc1-c1ccc2c(C3=C(c4cn(C)c5cc([N+](=O)[O-])ccc45)C(=O)NC3=O)cn(C)c2c1 [Example 2d] | 120 nM |
| Cn1cc(C2=C(c3cn(C)c4cc(-c5ncc[nH]5)ccc34)C(=O)NC2=O)c2ccccc21 [Example 2e, 3-[6-(1H-Imidazol-2-yl)-1-methyl-1H-indol-3-yl]-4-(1-methyl-1H-indol-3-yl)pyrrole-2,5-dione] | 80 nM |
| Cn1cc(C2=C(c3cn(C)c4cc([N+](=O)[O-])ccc34)C(=O)NC2=O)c2ccc(-c3cnc[nH]3)cc21 [Example 2f, 3-[6-(3H-Imidazol-4-yl)-1-methyl-1H-indol-3-yl]-4-(1-methyl-6-nitro-3-yl)pyrrole-2,5-dione hydrochloride] | 20 nM |
| Cn1cc(C2=C(c3cn(C)c4cc(-c5ccco5)ccc34)C(=O)NC2=O)c2ccccc21 [Example 2g, 3-(6-Furan-2-yl-1-methyl-1H-indol-3-yl)-4-(1-methyl-1H-indol-3-yl)pyrrole-2,5-dione] | 20 nM |
| Cn1cc(C2=C(c3cn(C)c4cc([N+](=O)[O-])ccc34)C(=O)NC2=O)c2ccc(-c3ccco3)cc21 [Example 2h, 3-(6-Furan-2-yl-1-methyl-1H-indol-3-yl)-4-(1-methyl-6-nitro-1H-indol-3-yl)pyrrole-2,5-dione] | 10 nM |

The next lines start with the values.

| IC50 | SMILES |
| --- | --- |
| 30 nM | Cn1cc(C2=C(c3c[nH]c4ccccc34)C(=O)NC2=O)c2ccc(-c3ccco3)cc21 [Example 2i, 3-(6-Furan-2-yl-1-methyl-1H-indol-3-yl)-4-(1H-indol-3-yl)pyrrole-2,5-dione] |
| 20 nM | Cn1nccc1-c1ccc2c(C3=C(c4cn(C)c5cc([N+](=O)[O-])ccc45)C(=O)NC3=O)cn(C)c2c1 [Example 2j, 3-[1-Methyl-6-(2-methyl-2H-pyrazol-3-yl)-1H-indol-3-yl]-4-(1-methyl-6-nitro-1H-indol-3-yl)pyrrole-2,5-dione] |
| 250 nM | Cn1nccc1-c1ccc2c(C3=C(c4cn(C)c5ccccc45)C(=O)NC3=O)cn(C)c2c1 [Example 2k, 3-(1-Methyl-1H-indol-3-yl)-4-[1-methyl-6-(2-methyl-2H-pyrazol-3-yl)-1H-indol-3-yl]pyrrole-2,5-dione] |
| 70 nM | Cn1nccc1-c1ccc2c(C3=C(c4cn(C)c5cc(Br)ccc45)C(=O)NC3=O)cn(C)c2c1 [Example 2l, 3-(6-Bromo-1-methyl-1H-indol-3-yl)-4-[1-methyl-6-(2-methyl-2H-pyrazol-3yl)-1H-indol-3-yl]pyrrole-2,5-dione] |
| 10 nM | Cn1cc(C2=C(c3cn(C)c4cc([N+](=O)[O-])ccc34)C(=O)NC2=O)c2ccc(-c3ccns3)cc21 [Example 2m, 3-(6-Isothiazol-5-yl-1-methyl-1H-indol-3-yl)-4-(1-methyl-6-nitro-1H-indol-3-yl)pyrrole-2,5-dione] |

Reference: patent US6281356A, “Substituted pyrroles” (Hoffmann-La Roche Inc., priority 2000, dated 2001)
